According to paper PMC3557573 (Cancer chemotherapy and pharmacology, 2012):
Several values for one entry are separate records, joined by “and”; a condition that tells them apart may be missing. Equal entries are not always repeated. Where two headings read alike, the source gives them in different places.

What was measured:
[1] = tested on: all 3 PKD isoforms; conditions: cited from earlier work
[2] = tested on: PANC-1 pancreatic cancer xenograft; conditions: po 80 mg/kg qd × 21 ref 31; cited from earlier work
[3] = tested on: CFPAC-1 xenografts; assay: Efficacy study in mice bearing CFPAC-1 xenografts; format: in vivo, C.B.-17 SCID mice
[4] = tested on: PC-3 human androgen-independent prostate cancer cells; conditions: PC-3 ref 34; cited from earlier work
[5] = Plasma protein binding, Rapid Equilibrium Dialysis; format: in vitro ADME
[6] = tested on: PANC-1 pancreatic cancer cells; assay: MTT assay, in vitro cytotoxicity; format: cell-based, human; conditions: PANC-1, 72 h
[7] = format: in vivo, C.B.-17 SCID mice
[8] = tested on: CFPAC-1 pancreatic cancer cells; assay: MTT assay, in vitro cytotoxicity; format: cell-based, human; conditions: CFPAC-1, 72 h
[9] = Partial mass balance of kb-NB142-70; format: in vivo, mouse; conditions: 5 min
[10] = β-glucuronidase treatment of urine; format: in vitro ADME, mice; conditions: 0-6 h urine, 37 °C, 24 h, 10,000 units
[11] = tested on: PC-3 human androgen independent prostate cancer cells; assay: MTT assay, in vitro cytotoxicity; format: cell-based; conditions: PC-3, 72 h
[12] = tested on: PC-3 xenografts; assay: Efficacy study in mice bearing PC-3 xenografts; format: in vivo, C.B.-17 SCID mice; conditions: 25 mg/kg/day iv qdx5, PC-3 xenografts
[13] = Urinary and fecal excretion; conditions: for metabolite excreted in urine, % of dose: assuming equivalent UV absorption
[14] = cited from earlier work
[15] = day 6, 50 mg/kg q3dx3, CFPAC-1 xenografts

Compound: O=C1NCCCc2c1oc1ccc(O)cc21 [CID755673, reference compound]
- IC50 ([1]; against all 3 PKD isoforms ref 33): 0.2 to 0.3 µM

Compound: CC[C@@H](N)CNc1ccnc(-c2cc(-c3cnn(C)c3)ccc2O)n1.Cl.Cl [CRT0066101]
- growth of PANC-1 xenograft [2]: slowed the growth

Compound: Nc1ccn([C@@H]2O[C@H](CO)[C@@H](O)C2(F)F)c(=O)n1 [gemcitabine]
- tumor doubling time ([3]; 50 mg/kg q3dx3, CFPAC-1 xenografts, control 2.2 days): 10.4 days
- T/C of mean tumor volume [3, 15]: 22%
- mean tumor volume [3, 15]: 335 mm^3

Compound: O=C1NCCSc2c1sc1ccc(O)cc21 [kb-NB142-70]
- EC50 [4]: 8 µM
- plasma protein bound ([5]; 0.3 μg/mL): 78%
- plasma protein bound ([5]; 3 μg/mL): 78%
- potency relative to CID755673 [1]: ≥ 2 fold
- IC50 [6]: 34 ± 7 µM
- AUC0→∞ Brain ([7]; 25 mg/kg iv): 85 nmol·min/g
- AUC0→∞ Fat ([7]; 25 mg/kg iv): 1681 nmol·min/g
- AUC0→∞ Heart ([7]; 25 mg/kg iv): 236 nmol·min/g
- AUC0→∞ Kidney ([7]; 25 mg/kg iv): 1712 nmol·min/g
- AUC0→∞ Liver ([7]; 25 mg/kg iv): 266 nmol·min/g
- AUC0→∞ Lung ([7]; 25 mg/kg iv): 377 nmol·min/g
- AUC0→∞ Plasma ([7]; 25 mg/kg iv): 409 nmol·min/mL
- AUC0→∞ RBC ([7]; 25 mg/kg iv): 288 nmol·min/mL
- AUC0→∞ Skeletal Muscle ([7]; 25 mg/kg iv): 748 nmol·min/g
- AUC0→∞ Spleen ([7]; 25 mg/kg iv): 288 nmol·min/g
- AUC0→∞ Tumor ([7]; 25 mg/kg iv): 731 nmol·min/g
- AUC for plasma ([7]; 25 mg/kg iv): 409 nmol·min/mL
- AUC for tumor ([7]; 25 mg/kg iv): 731 nmol·min/mg
- AUC in fat ([7]; 25 mg/kg iv): 1681 nmol·min/g
- clearance ([7]; 25 mg/kg iv): 243 mL/min/kg
- plasma half-life ([7]; 25 mg/kg iv): 6 min
- volume of distribution ([7]; 25 mg/kg iv): approximately 2744 mL/kg
- kidney Cmax ([7]; 25 mg/kg iv, at 5 min): 63 nmol/g
- lung Cmax ([7]; 25 mg/kg iv, at 5 min): 27 nmol/g
- PC-3 xenograft (tumor) Cmax ([7]; 25 mg/kg iv, observed at 10 min): 11.8 nmol/g and 12 nmol/g
- blood brain barrier crossing ([7]; 25 mg/kg iv, brain concentrations lower than plasma): appeared to cross the blood brain barrier
- Brain concentration ([7]; 5 min after 25 mg/kg iv): 6.34 ± 1.72 nmol/g
- Fat concentration ([7]; 5 min after 25 mg/kg iv): 9.92 ± 0.52 nmol/g
- Heart concentration ([7]; 5 min after 25 mg/kg iv): 14.5 ± 2.0 nmol/g
- Kidney concentration ([7]; 5 min after 25 mg/kg iv): 63.4 ± 13.7 nmol/g
- Liver concentration ([7]; 5 min after 25 mg/kg iv): 23.4 ± 1.1 nmol/g
- Lung concentration ([7]; 5 min after 25 mg/kg iv): 26.8 ± 3.3 nmol/g
- Plasma concentration ([7]; 5 min after 25 mg/kg iv): 36.9 ± 8.3 µM
- RBC concentration ([7]; 5 min after 25 mg/kg iv): 23.6 ± 1.7 nmol/mL
- Skeletal Muscle concentration ([7]; 5 min after 25 mg/kg iv): 18.4 ± 4.6 nmol/g
- Spleen concentration ([7]; 5 min after 25 mg/kg iv): 21.2 ± 3.8 nmol/g
- Tumor concentration ([7]; 5 min after 25 mg/kg iv): 5.62 ± 1.63 nmol/g
- Brain concentration ([7]; 10 min after 25 mg/kg iv): 5.07 ± 0.57 nmol/g
- Fat concentration ([7]; 10 min after 25 mg/kg iv): 8.93 ± 1.71 nmol/g
- Heart concentration ([7]; 10 min after 25 mg/kg iv): 13.1 ± 2.5 nmol/g
- Kidney concentration ([7]; 10 min after 25 mg/kg iv): 48.9 ± 15.8 nmol/g
- Liver concentration ([7]; 10 min after 25 mg/kg iv): 6.41 ± 0.56 nmol/g
- Lung concentration ([7]; 10 min after 25 mg/kg iv): 16.7 ± 1.2 nmol/g
- Plasma concentration ([7]; 10 min after 25 mg/kg iv): 23.4 ± 7.4 µM
- RBC concentration ([7]; 10 min after 25 mg/kg iv): 13.2 ± 2.7 nmol/mL
- Skeletal Muscle concentration ([7]; 10 min after 25 mg/kg iv): 15.5 ± 4.0 nmol/g
- Spleen concentration ([7]; 10 min after 25 mg/kg iv): 12.6 ± 2.5 nmol/g
- Tumor concentration ([7]; 10 min after 25 mg/kg iv): 11.8 ± 4.0 nmol/g
- Brain concentration ([7]; 15 min after 25 mg/kg iv): 2.40 ± 0.40 nmol/g
- Fat concentration ([7]; 15 min after 25 mg/kg iv): 6.65 ± 0.74 nmol/g
- Heart concentration ([7]; 15 min after 25 mg/kg iv): 6.23 ± 1.96 nmol/g
- Kidney concentration ([7]; 15 min after 25 mg/kg iv): 27.0 ± 12.4 nmol/g
- Liver concentration ([7]; 15 min after 25 mg/kg iv): 8.41 ± 0.29 nmol/g
- Lung concentration ([7]; 15 min after 25 mg/kg iv): 10.4 ± 4.9 nmol/g
- Plasma concentration ([7]; 15 min after 25 mg/kg iv): 10.3 ± 3.7 µM
- RBC concentration ([7]; 15 min after 25 mg/kg iv): 6.94 ± 2.26 nmol/mL
- Skeletal Muscle concentration ([7]; 15 min after 25 mg/kg iv): 9.45 ± 2.47 nmol/g
- Spleen concentration ([7]; 15 min after 25 mg/kg iv): 8.03 ± 3.39 nmol/g
- Tumor concentration ([7]; 15 min after 25 mg/kg iv): 5.22 ± 3.60 nmol/g
- Brain concentration ([7]; 30 min after 25 mg/kg iv): 0.84 ± 0.11 nmol/g
- Fat concentration ([7]; 30 min after 25 mg/kg iv): 2.80 ± 0.45 nmol/g
- Heart concentration ([7]; 30 min after 25 mg/kg iv): 2.60 ± 0.53 nmol/g
- Kidney concentration ([7]; 30 min after 25 mg/kg iv): 10.1 ± 2.0 nmol/g
- Lung concentration ([7]; 30 min after 25 mg/kg iv): 2.95 ± 1.69 nmol/g
- Plasma concentration ([7]; 30 min after 25 mg/kg iv): 2.0 ± 1.9 µM
- RBC concentration ([7]; 30 min after 25 mg/kg iv): 2.31 ± 1.70 nmol/mL
- Skeletal Muscle concentration ([7]; 30 min after 25 mg/kg iv): 2.28 ± 0.56 nmol/g
- Tumor concentration ([7]; 30 min after 25 mg/kg iv): 4.22 ± 1.92 nmol/g
- Fat concentration ([7]; 60 min after 25 mg/kg iv): 2.62 ± 1.35 nmol/g
- Kidney concentration ([7]; 60 min after 25 mg/kg iv): 2.87 ± 0.56 nmol/g
- Skeletal Muscle concentration ([7]; 60 min after 25 mg/kg iv): 1.05 ± 0.02 nmol/g
- Tumor concentration ([7]; 60 min after 25 mg/kg iv): 1.24 ± 0.95 nmol/g
- Fat concentration ([7]; 120 min after 25 mg/kg iv): 0.77 ± 0.13 nmol/g
- Kidney concentration ([7]; 120 min after 25 mg/kg iv): 3.76 ± 0.82 nmol/g
- Skeletal Muscle concentration ([7]; 120 min after 25 mg/kg iv): 0.95 ± 0.01 nmol/g
- Tumor concentration ([7]; 120 min after 25 mg/kg iv): 0.79 ± 0.32 nmol/g
- Fat concentration ([7]; 240 min after 25 mg/kg iv): 0.45 ± 0.06 nmol/g
- Kidney concentration ([7]; 240 min after 25 mg/kg iv): 1.78 ± 0.29 nmol/g
- Skeletal Muscle concentration ([7]; 240 min after 25 mg/kg iv): 1.00 ± 0.01 nmol/g
- Tumor concentration ([7]; 240 min after 25 mg/kg iv): 0.57 ± 0.60 nmol/g
- Fat concentration ([7]; 360 min after 25 mg/kg iv): 0.36 ± 0.03 nmol/g
- Skeletal Muscle concentration ([7]; 360 min after 25 mg/kg iv): 0.97 ± 0.06 nmol/g
- Tumor concentration ([7]; 360 min after 25 mg/kg iv): 1.21 ± 0.78 nmol/g
- Fat concentration ([7]; 960 min after 25 mg/kg iv): 0.85 ± 0.42 nmol/g
- Fat concentration ([7]; 1440 min after 25 mg/kg iv): 0.44 ± 0.07 nmol/g
- Cmax ([7]; read-out: Plasma Cmax, 25 mg/kg iv, observed at 5 min): 36.9 µM and 37 µM
- IC50 [8]: 5.2 ± 0.1 µM
- administered dose detectable in plasma and collected tissues as parent compound [9]: 12.5%
- total administered dose detectable in plasma and collected tissues ([9]; parent plus metabolite): 13.6 % of the dose
- increase in parent on incubation of urine with β-glucuronidase [10]: ~ 410%
- IC50 [11]: 21 ± 6 µM
- effect on the growth of the tumor xenografts [12]: no effect
- toxicity or changes in body weights [12]: did not result in any toxicity or changes in the body weights
- urinary excretion of parent, % of dose ([13]; 0-6 h urine): 2.5%
- metabolite excreted in urine, % of dose ([13]; 0-6 h urine): approximately 7.6%
- urinary excretion of parent, % of dose ([13]; 6-24 h urine): 0.1%
- metabolite excreted in urine, % of dose ([13]; 6-24 h urine): ~1.2%
- fecal excretion, % of dose ([13]; mouse, in vivo): 0.67%

Compound: COc1ncc2sc3c(c2n1)SCCNC3=O [kmg-NB4-23]
- aqueous solubility [14]: poor
